# Results taken from patent US10168342B2, “Lipid probes and uses thereof” (THE SCRIPPS RESEARCH INSTITUTE, priority 2015, dated 2019).
# Columns and labels:
# Assay in all cases: isoTOP-ABPP mapping of AEA-DA-modified peptides in Neuro2a cells
# Assay type in all cases: cell-based
# [1] = target: T1, AEA-DA-modified peptides in Neuro2a cells (Mus musculus, UniProt P00375); conditions: AEA-DA-modified peptide DHFR P00375 20-34, SEQ ID NO 30; probe 100 μM, 12 replicates
# T1 construct: endogenous in cells; host or cells: Neuro2a
# Procedure: (§1) Experiments were performed as described above using the AEA-DA probe (100 μM) in 3.0 mL of DMEM (serum-free) and Neuro2A cells without (twelve replicates; ten biological; two technical). For the ligand competition study, cells were treated with the AEA-DA probe (50 μM) and DMSO or MJN228 (50 μM) treatment. Cells were harvested and processed as described above. Whole cell lysates (500 μL at 1.5 mg/mL) were processed for MS analysis using the previously described isoTOPABPP protocol (Speers and Cravatt, 2005). In brief, for global mapping of AEA-DA-modified peptides, proteomes were split into two fractions, which were subjected to click chemistry conditions with either light or heavy isotopically labeled TEV-tags. For the […] competition study, proteomes were subjected to click chemistry conditions with either light (DMSO) or heavy (MJN228-treated) TEV-tags. Light and heavy-tagged proteomes in each experiment were then combined, and, following enrichment of probe-labeled targets using streptavidin beads, proteins were digested on-bead with trypsin and remaining immobilized peptides released with a subsequent TEV protease digestion. The resulting probe-modified peptides were collected for MS analysis, which was performed as described above with differences in the salt bumps applied in the chromatographic gradients which were 0%, 30%, 60%, 90% and 100% NH4OAc (500 mM). The protein identification searches of the MS data were performed using the same software packages described above with the following changes applied to identify the peptides modified with AEA-DA and the cleaved TEV tag. All amino acids were considered as possible residues for modification. To facilitate the computational searches, sets of up to 3 amino acids were searched using ProLuCID and filtered with DTASelect as described above. The mass of the modification used to search for probe-modified peptides was +727.4745 m/z for the probe plus the light TEV-tag and +733.4831 m/z for the heavy counterpart. […] For global mapping experiments, AEA-DA-modified peptides were expected to show a ratio of “heavy” and “light” signals of ˜1.0 (0.5<ratio<2.0) and were required to have been detected in at least two of the twelve replicate experiments.
# (§2) In some embodiments, the ligands are tested for their interaction to NUCB1 in cells. […] MJN228 inhibited lipid probe binding to NUCB1 at concentrations as low as 10 μM, with near-maximal inhibition observed at ˜25 μM (FIG. 16A). […] The site of arachidonoyl probe (and MJN228) binding to NUCB1 was mapped in cells, which was accomplished by treating Neuro2A cells with the AEA-DA probe (50 μM) in the presence of DMSO or MJN228 (50 μM), followed by UV irradiation, CuAAC conjugation of AEA-DA-labeled proteins to isotopically light (DMSO-treated cells) and heavy (MJN228-treated cells) azide-biotin tags featuring a TEV protease-cleavable linker, and LCMS/MS analysis using a previously described platform, termed isoTOP-ABPP, for mapping probe-modified peptides in proteomes (Speers and Cravatt, 2005). A AEA-DA labeled peptide was identified for NUCB1 (aa 53-68) in DMSO-treated cells and the signals for this peptide were substantially (>5-fold) reduced in MJN228-treated cells (FIG. 15C). This AEA-DA labeling site was confirmed using recombinant, purified hNUCB1 and tandem MS analysis which narrowed down the site of probe modification to His67 (FIGS. 16B and 16C).
# [2] = target: T2, AEA-DA-modified peptides in Neuro2a cells (Mus musculus, UniProt P09103); conditions: probe 100 μM, 12 replicates
# T2 construct: endogenous in cells; host or cells: Neuro2a
# Procedure: as §1, §2
# [3] = target: T3, AEA-DA-modified peptides in Neuro2a cells (Mus musculus, UniProt P35505); conditions: AEA-DA-modified peptide FAH P35505 238-254, SEQ ID NO 40; probe 100 μM, 12 replicates
# T3 construct: endogenous in cells; host or cells: Neuro2a
# Procedure: as §1, §2
# [4] = target: T4, AEA-DA-modified peptides in Neuro2a cells (Mus musculus, UniProt P52825); conditions: AEA-DA-modified peptide CPT2 P52825 363-383, SEQ ID NO 26; probe 100 μM, 12 replicates
# T4 construct: endogenous in cells; host or cells: Neuro2a
# Procedure: as §1, §2
# [5] = target: T5, AEA-DA-modified peptides in Neuro2a cells (Mus musculus, UniProt P70333); conditions: AEA-DA-modified peptide HNRNPH 2 P70333 50-69, SEQ ID NO 50; probe 100 μM, 12 replicates
# T5 construct: endogenous in cells; host or cells: Neuro2a
# Procedure: as §1, §2
# [6] = target: T6, AEA-DA-modified peptides in Neuro2a cells (Mus musculus, UniProt P84078); conditions: AEA-DA-modified peptide ARF1 P84078 39-60, SEQ ID NO 10; probe 100 μM, 12 replicates
# T6 construct: endogenous in cells; host or cells: Neuro2a
# Procedure: as §1, §2
# [7] = target: T7, AEA-DA-modified peptides in Neuro2a cells (Mus musculus, UniProt Q8BMG8); conditions: AEA-DA-modified peptide SLC25A32 Q8BMG8 115-146, SEQ ID NO 104; probe 100 μM, 12 replicates
# T7 construct: endogenous in cells; host or cells: Neuro2a
# Procedure: as §1, §2
# [8] = target: T8, AEA-DA-modified peptides in Neuro2a cells (Mus musculus, UniProt Q8R127); conditions: AEA-DA-modified peptide SCCPDH Q8R127 145-168, SEQ ID NO 96; probe 100 μM, 12 replicates
# T8 construct: endogenous in cells; host or cells: Neuro2a
# Procedure: as §1, §2
# [9] = target: T9, AEA-DA-modified peptides in Neuro2a cells (Mus musculus, UniProt Q8VC28); conditions: AEA-DA-modified peptide AKR1C13 Q8VC28 48-69, SEQ ID NO 7; probe 100 μM, 12 replicates
# T9 construct: endogenous in cells; host or cells: Neuro2a
# Procedure: as §1, §2
# [10] = target: T10, AEA-DA-modified peptides in Neuro2a cells (Mus musculus, UniProt Q9D771); conditions: AEA-DA-modified peptide TMEM206 Q9D771 247-260, SEQ ID NO 113; probe 100 μM, 12 replicates
# T10 construct: endogenous in cells; host or cells: Neuro2a
# Procedure: as §1, §2
# [11] = target: T11, AEA-DA-modified peptides in Neuro2a cells (Mus musculus, UniProt Q9DC61); conditions: AEA-DA-modified peptide PMPCA Q9DC61 428-451, SEQ ID NO 88; probe 100 μM, 12 replicates
# T11 construct: endogenous in cells; host or cells: Neuro2a
# Procedure: as §1, §2
# [12] = target: T12, AEA-DA-modified peptides in Neuro2a cells (Mus musculus, UniProt Q9DCC8); conditions: AEA-DA-modified peptide TOMM20 Q9DCC8 69-89, SEQ ID NO 115; probe 100 μM, 12 replicates
# T12 construct: endogenous in cells; host or cells: Neuro2a
# Procedure: as §1, §2
# T2 sequence (P09103 20-509): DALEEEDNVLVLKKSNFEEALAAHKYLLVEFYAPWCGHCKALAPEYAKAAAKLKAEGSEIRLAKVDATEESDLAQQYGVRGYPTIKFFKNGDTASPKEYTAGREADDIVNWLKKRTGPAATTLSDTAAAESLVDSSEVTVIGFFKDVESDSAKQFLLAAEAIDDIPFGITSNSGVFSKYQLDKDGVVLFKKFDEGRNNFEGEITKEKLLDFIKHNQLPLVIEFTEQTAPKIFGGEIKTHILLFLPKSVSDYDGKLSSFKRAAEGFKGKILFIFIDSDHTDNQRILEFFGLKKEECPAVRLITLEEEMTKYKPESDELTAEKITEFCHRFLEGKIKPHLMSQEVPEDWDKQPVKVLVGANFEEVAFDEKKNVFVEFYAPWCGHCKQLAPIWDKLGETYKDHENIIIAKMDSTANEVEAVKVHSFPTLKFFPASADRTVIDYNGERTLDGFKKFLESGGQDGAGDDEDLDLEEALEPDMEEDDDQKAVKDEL
# T7 sequence (Q8BMG8 whole entry): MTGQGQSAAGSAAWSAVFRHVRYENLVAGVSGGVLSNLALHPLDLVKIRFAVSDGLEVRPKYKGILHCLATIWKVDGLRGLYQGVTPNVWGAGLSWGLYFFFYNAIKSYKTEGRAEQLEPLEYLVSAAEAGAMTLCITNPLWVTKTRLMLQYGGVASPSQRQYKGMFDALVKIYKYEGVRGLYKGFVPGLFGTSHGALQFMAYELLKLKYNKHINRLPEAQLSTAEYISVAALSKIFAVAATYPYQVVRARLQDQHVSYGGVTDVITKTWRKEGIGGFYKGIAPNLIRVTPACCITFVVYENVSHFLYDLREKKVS
# T12 sequence (Q9DCC8 whole entry): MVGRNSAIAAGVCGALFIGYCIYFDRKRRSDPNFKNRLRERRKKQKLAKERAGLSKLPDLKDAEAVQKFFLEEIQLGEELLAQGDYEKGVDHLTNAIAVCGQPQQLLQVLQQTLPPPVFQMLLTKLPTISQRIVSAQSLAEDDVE
# T11 sequence (Q9DC61 34-524): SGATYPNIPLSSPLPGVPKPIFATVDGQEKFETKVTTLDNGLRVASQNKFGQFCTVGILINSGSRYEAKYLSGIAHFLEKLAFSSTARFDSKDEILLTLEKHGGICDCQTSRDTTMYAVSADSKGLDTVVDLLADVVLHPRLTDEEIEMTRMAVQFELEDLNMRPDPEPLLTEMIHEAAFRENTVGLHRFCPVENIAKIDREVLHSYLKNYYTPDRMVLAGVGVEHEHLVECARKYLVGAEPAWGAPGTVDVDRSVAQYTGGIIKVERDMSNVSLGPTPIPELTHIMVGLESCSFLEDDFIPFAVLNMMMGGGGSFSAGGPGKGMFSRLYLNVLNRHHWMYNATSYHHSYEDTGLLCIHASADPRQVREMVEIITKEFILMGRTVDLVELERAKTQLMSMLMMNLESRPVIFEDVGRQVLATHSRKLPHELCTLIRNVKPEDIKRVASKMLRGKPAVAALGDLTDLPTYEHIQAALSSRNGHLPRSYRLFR
# T4 sequence (P52825 26-658): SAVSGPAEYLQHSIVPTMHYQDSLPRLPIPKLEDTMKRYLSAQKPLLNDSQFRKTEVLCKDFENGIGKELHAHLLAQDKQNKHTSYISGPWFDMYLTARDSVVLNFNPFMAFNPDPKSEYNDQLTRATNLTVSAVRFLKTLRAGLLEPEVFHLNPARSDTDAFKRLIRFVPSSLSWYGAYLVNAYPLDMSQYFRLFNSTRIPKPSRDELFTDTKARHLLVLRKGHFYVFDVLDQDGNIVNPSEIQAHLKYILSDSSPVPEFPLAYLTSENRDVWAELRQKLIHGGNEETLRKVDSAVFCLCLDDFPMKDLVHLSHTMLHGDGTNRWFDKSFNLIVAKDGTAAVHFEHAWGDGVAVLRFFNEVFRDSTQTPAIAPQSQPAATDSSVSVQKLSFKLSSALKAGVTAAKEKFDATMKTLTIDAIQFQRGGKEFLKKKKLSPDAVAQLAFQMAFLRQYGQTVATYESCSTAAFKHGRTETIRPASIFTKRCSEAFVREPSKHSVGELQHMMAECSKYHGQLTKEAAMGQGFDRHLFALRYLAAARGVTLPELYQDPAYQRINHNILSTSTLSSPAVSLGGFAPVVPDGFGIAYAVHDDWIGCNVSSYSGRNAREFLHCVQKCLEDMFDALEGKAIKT
# T5 sequence (P70333 whole entry): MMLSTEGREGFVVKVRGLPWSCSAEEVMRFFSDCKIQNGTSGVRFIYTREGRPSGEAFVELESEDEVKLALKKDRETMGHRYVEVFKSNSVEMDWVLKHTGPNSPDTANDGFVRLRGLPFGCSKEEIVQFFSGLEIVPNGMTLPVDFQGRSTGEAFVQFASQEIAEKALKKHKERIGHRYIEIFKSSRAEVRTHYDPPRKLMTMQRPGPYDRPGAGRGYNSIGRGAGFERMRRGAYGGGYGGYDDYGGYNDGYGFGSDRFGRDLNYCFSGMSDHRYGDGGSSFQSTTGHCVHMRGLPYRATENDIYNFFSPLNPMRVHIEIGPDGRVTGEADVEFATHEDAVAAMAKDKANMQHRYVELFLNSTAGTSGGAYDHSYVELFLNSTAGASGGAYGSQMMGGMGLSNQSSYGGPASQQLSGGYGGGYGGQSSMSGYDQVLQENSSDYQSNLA
# T9 sequence (Q8VC28 whole entry): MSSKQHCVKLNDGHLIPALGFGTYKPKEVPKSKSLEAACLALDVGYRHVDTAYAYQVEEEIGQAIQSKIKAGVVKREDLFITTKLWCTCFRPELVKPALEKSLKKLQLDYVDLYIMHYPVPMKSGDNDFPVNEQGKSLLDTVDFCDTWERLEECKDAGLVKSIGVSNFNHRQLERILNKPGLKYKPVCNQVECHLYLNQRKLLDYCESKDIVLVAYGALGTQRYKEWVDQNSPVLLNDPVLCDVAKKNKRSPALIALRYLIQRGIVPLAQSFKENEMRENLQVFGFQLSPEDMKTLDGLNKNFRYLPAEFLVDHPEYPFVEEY
# T1 sequence (P00375 whole entry): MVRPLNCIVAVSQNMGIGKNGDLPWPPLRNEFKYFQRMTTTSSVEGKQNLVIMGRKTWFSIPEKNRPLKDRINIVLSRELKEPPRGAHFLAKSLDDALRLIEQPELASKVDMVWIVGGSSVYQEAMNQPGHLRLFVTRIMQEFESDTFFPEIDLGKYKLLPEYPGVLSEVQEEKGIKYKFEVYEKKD
# T6 sequence (P84078 whole entry): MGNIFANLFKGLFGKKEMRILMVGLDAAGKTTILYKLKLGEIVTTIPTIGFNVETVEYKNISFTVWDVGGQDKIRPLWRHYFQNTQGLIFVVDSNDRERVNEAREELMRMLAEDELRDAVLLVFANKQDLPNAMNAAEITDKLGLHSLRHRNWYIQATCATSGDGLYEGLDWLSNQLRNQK
# T10 sequence (Q9D771 whole entry): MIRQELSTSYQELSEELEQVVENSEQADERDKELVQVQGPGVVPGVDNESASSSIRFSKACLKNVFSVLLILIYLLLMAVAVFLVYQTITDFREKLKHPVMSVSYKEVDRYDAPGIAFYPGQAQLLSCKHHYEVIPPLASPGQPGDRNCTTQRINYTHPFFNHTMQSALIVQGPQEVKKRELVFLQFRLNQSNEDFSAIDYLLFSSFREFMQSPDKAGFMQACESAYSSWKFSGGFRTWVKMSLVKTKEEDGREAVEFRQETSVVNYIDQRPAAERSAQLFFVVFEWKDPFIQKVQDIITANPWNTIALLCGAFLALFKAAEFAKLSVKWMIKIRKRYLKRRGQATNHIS
# T8 sequence (Q8R127 whole entry): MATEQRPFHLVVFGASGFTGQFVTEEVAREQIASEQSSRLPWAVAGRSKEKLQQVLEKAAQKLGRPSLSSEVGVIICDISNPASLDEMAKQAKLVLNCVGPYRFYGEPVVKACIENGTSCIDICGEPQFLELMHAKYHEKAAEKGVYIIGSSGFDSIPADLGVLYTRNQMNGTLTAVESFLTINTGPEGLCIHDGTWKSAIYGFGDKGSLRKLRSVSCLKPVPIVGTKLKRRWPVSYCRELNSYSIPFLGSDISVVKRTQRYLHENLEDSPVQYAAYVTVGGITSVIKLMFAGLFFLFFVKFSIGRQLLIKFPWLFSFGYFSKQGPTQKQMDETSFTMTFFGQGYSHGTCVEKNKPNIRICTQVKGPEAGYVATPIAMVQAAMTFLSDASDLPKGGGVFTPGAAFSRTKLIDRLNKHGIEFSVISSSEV
# T3 sequence (P35505 whole entry): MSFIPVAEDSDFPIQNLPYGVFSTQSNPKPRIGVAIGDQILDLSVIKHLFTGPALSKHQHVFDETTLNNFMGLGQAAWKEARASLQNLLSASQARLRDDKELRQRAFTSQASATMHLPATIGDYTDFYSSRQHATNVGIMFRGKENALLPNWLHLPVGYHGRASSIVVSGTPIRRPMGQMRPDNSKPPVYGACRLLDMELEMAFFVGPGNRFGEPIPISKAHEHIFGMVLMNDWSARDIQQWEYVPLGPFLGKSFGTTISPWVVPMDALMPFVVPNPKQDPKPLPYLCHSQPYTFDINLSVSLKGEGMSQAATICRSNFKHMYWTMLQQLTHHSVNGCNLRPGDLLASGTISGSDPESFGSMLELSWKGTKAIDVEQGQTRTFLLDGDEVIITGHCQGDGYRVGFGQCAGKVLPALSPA
structure (smiles),measurement,setting,value
"C#CCCCC1(CC/C=C\C/C=C\C/C=C\CCCC(=O)NCCO)N=N1 [AEA-DA, (5Z,8Z,11Z)-N-(2-hydroxyethyl)-14-(3-(pent-4-yn-1-yl)-3H-diazirin-3-yl)tetradeca-5,8,11-trienamide]",Times observed,[1],4
same,Times observed,"[2]; AEA-DA-modified peptide P4HB P09103 135-165, SEQ ID NO 77",3
same,Times observed,"[2]; AEA-DA-modified peptide P4HB P09103 233-250, SEQ ID NO 78",10
same,Times observed,[3],8
same,Times observed,[4],6
same,Times observed,[5],9
same,Times observed,[6],9
same,Times observed,[7],6
same,Times observed,[8],11
same,Times observed,[9],4
same,Times observed,[10],2
same,Times observed,[11],7
same,Times observed,[12],7
